Laboratory results taken from PubChem BioAssay (NCI).
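Five concentrations, 48 hours, 96-well plates. GI50 = concentration required for 50% inhibition of growth. TGI marks complete inhibition of growth.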

Columns and labels:
Experiment in all cases: inhibition of tumour cell growth, NCI panel, 48 h
ACHN renal = system: ACHN renal
UACC-62 melanoma = system: UACC-62 melanoma
RXF 393 renal = system: RXF 393 renal
SF-539 CNS = system: SF-539 CNS
HCC-2998 colon = system: HCC-2998 colon
HT29 colon = system: HT29 colon
SNB-75 CNS = system: SNB-75 CNS
SK-MEL-28 melanoma = system: SK-MEL-28 melanoma
NCI-H460 lung = system: NCI-H460 lung
SK-MEL-5 melanoma = system: SK-MEL-5 melanoma
SN12C renal = system: SN12C renal
HOP-62 NSCLC = system: HOP-62 NSCLC
MDA-MB-231 breast = system: MDA-MB-231 breast
DU-145 prostate = system: DU-145 prostate
OVCAR-4 ovarian = system: OVCAR-4 ovarian
EKVX NSCLC = system: EKVX NSCLC
HCT-15 colon = system: HCT-15 colon
MALME-3M melanoma = system: MALME-3M melanoma
SK-OV-3 ovarian = system: SK-OV-3 ovarian
M14 melanoma = system: M14 melanoma
UO-31 renal = system: UO-31 renal
OVCAR-5 ovarian = system: OVCAR-5 ovarian
NCI-H226 lung = system: NCI-H226 lung
RPMI-8226 leukemia = system: RPMI-8226 leukemia
NCI/ADR-RES ovarian = system: NCI/ADR-RES ovarian
786-0 renal = system: 786-0 renal
MDA-MB-435 = system: MDA-MB-435
A549 NSCLC = system: A549 NSCLC
COLO 205 colon = system: COLO 205 colon
SNB-19 CNS = system: SNB-19 CNS
CCRF-CEM leukemia = system: CCRF-CEM leukemia
OVCAR-8 ovarian = system: OVCAR-8 ovarian
NCI-H23 lung = system: NCI-H23 lung
PC-3 prostate = system: PC-3 prostate
HL-60(TB) leukemia = system: HL-60(TB) leukemia
MOLT-4 leukemia = system: MOLT-4 leukemia
UACC-257 melanoma = system: UACC-257 melanoma
MCF7 breast = system: MCF7 breast
IGROV1 ovarian = system: IGROV1 ovarian
LOX IMVI melanoma = system: LOX IMVI melanoma
SF-295 CNS = system: SF-295 CNS
SW-620 colon = system: SW-620 colon
NCI-H522 lung = system: NCI-H522 lung
A498 renal = system: A498 renal
KM12 colon = system: KM12 colon
HCT-116 colon = system: HCT-116 colon
CAKI-1 renal = system: CAKI-1 renal
K-562 leukemia = system: K-562 leukemia
TK-10 renal = system: TK-10 renal
HOP-92 NSCLC = system: HOP-92 NSCLC
SF-268 CNS = system: SF-268 CNS
BT-549 breast = system: BT-549 breast
U251 CNS = system: U251 CNS
HS 578T breast = system: HS 578T breast
T-47D breast = system: T-47D breast
SK-MEL-2 melanoma = system: SK-MEL-2 melanoma

O=C(/C=C/c1csc(Br)n1)NO gave a GI50 (ACHN renal) of 2.36 µM, a TGI (ACHN renal) of 6.99 µM and a GI50 (UACC-62 melanoma) of 1.25 µM. It also gave a TGI (UACC-62 melanoma) of 3.2 µM, a GI50 (RXF 393 renal) of 1.43 µM and a TGI (RXF 393 renal) of 3.65 µM. It also gave a GI50 (SF-539 CNS) of 3.11 µM, a TGI (SF-539 CNS) of 14.8 µM and a GI50 (HCC-2998 colon) of 3.29 µM. For the same compound, the TGI (HCC-2998 colon) was 11.6 µM, the GI50 (HT29 colon) was 2.31 µM and the TGI (HT29 colon) was greater than 100 µM. For the same compound, the GI50 (SNB-75 CNS) was 1.83 µM, the TGI (SNB-75 CNS) was 21 µM and the GI50 (SK-MEL-28 melanoma) was 3.46 µM. The TGI (SK-MEL-28 melanoma) was greater than 100 µM, the GI50 (NCI-H460 lung) was 2.81 µM and the TGI (NCI-H460 lung) was 41.5 µM. It also gave a GI50 (SK-MEL-5 melanoma) of 1.82 µM, a TGI (SK-MEL-5 melanoma) of 3.5 µM and a GI50 (SN12C renal) of 3.84 µM. It also gave a TGI (SN12C renal) greater than 100 µM, a GI50 (HOP-62 NSCLC) of 2.76 µM and a TGI (HOP-62 NSCLC) of 11.5 µM. It also gave a GI50 (MDA-MB-231 breast) of 3.51 µM, a TGI (MDA-MB-231 breast) of 21.2 µM and a GI50 (DU-145 prostate) of 3.16 µM. For the same compound, the TGI (DU-145 prostate) was 23.1 µM, the GI50 (OVCAR-4 ovarian) was 6.3 µM and the TGI (OVCAR-4 ovarian) was greater than 100 µM. It also gave a GI50 (EKVX NSCLC) of 4.23 µM, a TGI (EKVX NSCLC) greater than 100 µM and a GI50 (HCT-15 colon) of 3.17 µM. It also gave a TGI (HCT-15 colon) greater than 100 µM, a GI50 (MALME-3M melanoma) of 1.41 µM and a TGI (MALME-3M melanoma) of 8.29 µM. For the same compound, the GI50 (SK-OV-3 ovarian) was 1.77 µM, the TGI (SK-OV-3 ovarian) was 5.09 µM and the GI50 (M14 melanoma) was 3.3 µM. For the same compound, the TGI (M14 melanoma) was 17.7 µM, the GI50 (UO-31 renal) was 1.7 µM and the TGI (UO-31 renal) was 4.16 µM. The GI50 (OVCAR-5 ovarian) was 2.25 µM, the TGI (OVCAR-5 ovarian) was greater than 100 µM and the GI50 (NCI-H226 lung) was 5.22 µM. For the same compound, the TGI (NCI-H226 lung) was 20 µM, the GI50 (RPMI-8226 leukemia) was 2.64 µM and the TGI (RPMI-8226 leukemia) was 18.8 µM. For the same compound, the GI50 (NCI/ADR-RES ovarian) was 1.57 µM, the TGI (NCI/ADR-RES ovarian) was 8.36 µM and the GI50 (786-0 renal) was 3.38 µM. It also gave a TGI (786-0 renal) of 34.7 µM, a GI50 (MDA-MB-435) of 2.88 µM and a TGI (MDA-MB-435) of 15.3 µM. It also gave a GI50 (A549 NSCLC) of 2.45 µM, a TGI (A549 NSCLC) of 8.4 µM and a GI50 (COLO 205 colon) of 1.75 µM. For the same compound, the TGI (COLO 205 colon) was 3.36 µM, the GI50 (SNB-19 CNS) was 3.82 µM and the TGI (SNB-19 CNS) was 88.4 µM. It also gave a GI50 (CCRF-CEM leukemia) of 2.73 µM, a TGI (CCRF-CEM leukemia) greater than 100 µM and a GI50 (OVCAR-8 ovarian) of 2.19 µM. It also gave a TGI (OVCAR-8 ovarian) of 8.33 µM, a GI50 (NCI-H23 lung) of 3.01 µM and a TGI (NCI-H23 lung) of 10.5 µM. For the same compound, the GI50 (PC-3 prostate) was 3.17 µM, the TGI (PC-3 prostate) was 17.6 µM and the GI50 (HL-60(TB) leukemia) was 2.51 µM. The TGI (HL-60(TB) leukemia) was 6.58 µM, the GI50 (MOLT-4 leukemia) was 2.3 µM and the TGI (MOLT-4 leukemia) was 10.2 µM. For the same compound, the GI50 (UACC-257 melanoma) was 1.31 µM, the TGI (UACC-257 melanoma) was 4.91 µM and the GI50 (MCF7 breast) was 3 µM. It also gave a TGI (MCF7 breast) of 16.7 µM, a GI50 (IGROV1 ovarian) of 2.06 µM and a TGI (IGROV1 ovarian) of 5.25 µM. It also gave a GI50 (LOX IMVI melanoma) of 1.31 µM, a TGI (LOX IMVI melanoma) of 2.69 µM and a GI50 (SF-295 CNS) of 2.51 µM. The TGI (SF-295 CNS) was 6.35 µM, the GI50 (SW-620 colon) was 1.89 µM and the TGI (SW-620 colon) was 5.52 µM. For the same compound, the GI50 (NCI-H522 lung) was 2.48 µM, the TGI (NCI-H522 lung) was 11.2 µM and the GI50 (A498 renal) was 1.34 µM. The TGI (A498 renal) was 3.21 µM, the GI50 (KM12 colon) was 3.61 µM and the TGI (KM12 colon) was 39.5 µM. For the same compound, the GI50 (HCT-116 colon) was 1.83 µM, the TGI (HCT-116 colon) was 4.51 µM and the GI50 (CAKI-1 renal) was 2.35 µM. The TGI (CAKI-1 renal) was 7.22 µM, the GI50 (K-562 leukemia) was 2.61 µM and the TGI (K-562 leukemia) was 15.4 µM. It also gave a GI50 (TK-10 renal) of 1.41 µM, a TGI (TK-10 renal) of 6.18 µM and a GI50 (HOP-92 NSCLC) of 1.3 µM. The TGI (HOP-92 NSCLC) was 3.95 µM, the GI50 (SF-268 CNS) was 3.22 µM and the TGI (SF-268 CNS) was 9.29 µM. It also gave a GI50 (BT-549 breast) of 3.84 µM, a TGI (BT-549 breast) of 16.5 µM and a GI50 (U251 CNS) of 1.9 µM. It also gave a TGI (U251 CNS) of 4.09 µM, a GI50 (HS 578T breast) of 2.05 µM and a TGI (HS 578T breast) of 8.66 µM. The GI50 (T-47D breast) was 2.03 µM, the TGI (T-47D breast) was 5.63 µM and the GI50 (SK-MEL-2 melanoma) was 2.62 µM. The TGI (SK-MEL-2 melanoma) was 7.26 µM.
